Where “and” joins values, the source holds several entries; their conditions need not be identical. Equal entries are not always repeated. Where two headings read alike, the source gives them in different places.
Key:
T.b. rhodesiense = conditions: literature ref. 30; cited from earlier work
T.b gambiense = conditions: literature ref. 30; cited from earlier work
L. donovani = conditions: literature ref. 55; cited from earlier work
[1] = test system: Trypanosoma brucei rhodesiense (STIB900); assay: In vitro growth inhibition assay of T.b. rhodesiense (STIB900), Alamar blue; assay type: cell-based
Description: (§1) Each of the nucleoside analogues was examined for in vitro activity against four parasites, T.b. rhodesiene, T. cruzi, L. donovoni and P. falciparum, as well as for cytotoxicity toward the L6 rat myoblast cell line.
(§2) All IC50 values are expressed as micromolar. Cytotoxicity (L6 rat myoblast cells); average of duplicate determinations. Trypanosoma brucei rhodesiense (STIB900); average of duplicate determinations. Selectivity index for T.b. rhodesiense (SIr); expressed as the ratio [IC50 (L6/IC50 (T.b. rhodesiense)]. Plasmodium falciparum ([…], resistant to chloroquine); average of duplicate determinations. Selectivity index for P. falciparum (SIp), expressed as the ratio [IC50 (L6/IC50 (P. falciparum)]. Leishmania donovani (MHOM/SD/62/IS-CL2D) axenic amastigotes; average of duplicate determinations. Selectivity index for L. donovani (SIL), expressed as the ratio [IC50 (L6/IC50 (L. donovani)]. Trypanosoma cruzi; average of duplicate determinations. Selectivity index for T. cruzi (SIC), expressed as the ratio [IC50(L6/IC50(T. cruzi)]. IA. Nucleoside analogs designed to be activated via Pathway I. IB. Nucleoside analogs designed to be activated via Pathway II. Phth=phthalimido.
Preparation of compounds for assay. Compounds were dissolved in 100% dimethyl sulfoxide (DMSO) and diluted in the culture medium prior to the in vitro assay. The DMSO concentration never exceeded 1% in the in vitro Alamar Blue assays at the highest drug concentration.
In vitro growth inhibition assay of T.B. rhodesiense (STIB900). IC50 values were determined using the Alamar blue assay and were carried out twice independently and in duplicate as described.^57

[2] = test system: Plasmodium falciparum (KI), erythrocytic stages; assay: In vitro growth inhibition assay of P. falciparum, [3H]-hypoxanthine incorporation; assay type: cell-based
Description: as §1, §2
In vitro growth inhibition assay of P. falciparum (KI). The determination of IC50 values against erythrocytic stages of P. falciparum was carried out in duplicate using the [^3H]-hypoxanthine incorporation assay.^58,59

Trypanosoma cruzi = assay: In vitro activity against T. cruzi; assay type: cell-based; conditions: for IC50: Trypanosoma cruzi
Description: as §1, §2

[3] = test system: Leishmania donovani (MHOM/SD/62/IS-CL2D) axenic amastigotes; assay: In vitro growth inhibition assay of L. donovani axenic amastigotes, CellTiter; assay type: cell-based; conditions: for IC50: Leishmania donovani, axenic amastigotes, average of duplicate determinations, read-out: IC50 against L. donovani
Description: as §1, §2
In vitro growth inhibition assay of L. Donovani. Axenic amastigotes of L. Donovaniwere adapted from promastigotes and grown in the amastigote medium previously described.^60 The tetrazolium dye-based CellTiter reagent (Promega, Madison, Wis.) was used to assess parasite growth.^61

[4] = In vitro cytotoxicity assay (L6 rat myoblast cells), Alamar blue; assay type: cell-based; conditions: read-out: Cytotoxicity IC50 toward L6 mammalian cell line
Description: as §1, §2
In vitro cytoxicity assay (L6 Rat Myoblast cells). IC50 values were determined using the Alamar blue assay^62 and were carried out twice independently.

Leishmania donovani [5] = conditions: literature ref. 29; cited from earlier work
Leishmania donovani [6] = conditions: literature ref. 29; cited from earlier work; remark: listed apart in the source
[7] = average of duplicate determinations, read-out: IC50 against T. cruzi

Structure (SMILES): O=C1N=CN=C2C([C@@H]3O[C@H](CO)[C@@H](O)[C@H]3O)=CN=C12 [9-deaza-inosine]
- Activity against T.b. rhodesiense (T.b. rhodesiense): active
- Activity against T.b gambiense (T.b gambiense): active
- Activity against L. donovani in a squirrel monkey in vivo model (L. donovani): activity

Structure (SMILES): CSC[C@H]1O[C@@H](n2cnc3c(N)nc(F)nc32)[C@H](O)[C@@H]1O [ACT-51, 5′-Deoxy-2-fluoro-5′-(methylthio)adenosine]
- Activity against Trypanosoma brucei (in words) [1]: strong activity
- Activity against P. falciparum (in words) [2]: strong activity
- IC50 (Trypanosoma cruzi; [7]): 2600 nM
- Activity against L. donovani (in words) [3]: strong activity
- IC50 [4]: 584 nM

Structure (SMILES): CSC[C@H]1O[C@@H](n2cnc3c(N(C)N=O)nc(F)nc32)[C@H](O)[C@@H]1O [ACT-88, 5′-Deoxy-2-fluoro-N^6-methyl-5′-methylthio-N^6-nitrosoadenosine]
- Activity against Trypanosoma brucei (in words) [1]: absence
- IC50 ([2]; Plasmodium falciparum, read-out: IC50 against Plasmodium falciparum): 110 nM
- Selectivity index for P. falciparum (SIp) ([2]; ratio IC50 (L6)/IC50 (P. falciparum)): 983 and 1254
- Activity against Trypanosoma cruzi (in words) (Trypanosoma cruzi): absence
- Activity against L. donovani (in words) [3]: absence

Structure (SMILES): Nc1nc(Cl)c2ccn(C3O[C@H](CO)[C@@H](O)[C@H]3O)c2n1 (stereo partly drawn) [ACT-91, 2-Amino-6-chloro-7-deaza-9-(D-ribofuranosyl)purine]
- IC50 ([1]; Trypanosoma brucei, STIB900, average of duplicate determinations, read-out: IC50 against T.b. rhodesiense): 130 nM
- melting point: 172 to 173 °C
- IC50 (Trypanosoma cruzi; [7]): 3400 nM
- Selectivity index for T. cruzi (SIC) (Trypanosoma cruzi; ratio IC50 (L6)/IC50 (T. cruzi)): 48
- IC50 [3]: 60 nM
- Selectivity index for L. donovani (SIL) ([3]; ratio IC50 (L6)/IC50 (L. donovani)): 2720 and 2717

Structure (SMILES): CC(=O)O[C@@H]1[C@H](OC(C)=O)[C@@H](CN=[N+]=[N-])O[C@H]1n1cnc2c(N)nc(Cl)nc21 [Compound 41, 2′,3′-Di-O-Acetyl-5′-azido-2-chloro-5′-deoxyadenosine]
- melting point: 75 to 77 °C

Structure (SMILES): CC(=O)O[C@@H]1[C@H](OC(C)=O)[C@@H](CN2C(=O)c3ccccc3C2=O)O[C@H]1n1cnc2c(N)nc(F)nc21 [Compound 44, 2′,3′-Di-O-acetyl-5′-deoxy-2-fluoro-5′-phthalimidoadenosine]
- melting point: 237 to 239 °C

Structure (SMILES): CC(=O)O[C@@H]1[C@H](OC(C)=O)[C@@H](CN2C(=O)c3ccccc3C2=O)O[C@H]1n1cnc2c(N)nc(Cl)nc21 [Compound 45, 2′,3′-Di-O-acetyl-2-chloro-5′-deoxy-5′-phthalimidoadenosine]
- melting point: 256 °C

Structure (SMILES): CC(=O)O[C@@H]1[C@H](OC(C)=O)[C@@H](CI)O[C@H]1n1cnc2c(N)nc(F)nc21 [Compound 46, 2′,3′-Di-O-acetyl-5′-deoxy-2-fluoro-5′-iodoadenosine]
- melting point: 181 to 182 °C

Structure (SMILES): CC(=O)O[C@@H]1[C@H](OC(C)=O)[C@@H](CI)O[C@H]1n1cnc2c(N)nc(Cl)nc21 [Compound 47, 2′,3′-Di-O-acetyl-2-chloro-5′-deoxy-5′-iodoadenosine]
- melting point: 93 °C

Structure (SMILES): [N-]=[N+]=NC[C@H]1O[C@@H](n2cnc3c(N)nc(Cl)nc32)[C@H](O)[C@@H]1O [Compound 49, 5′-Azido-2-chloro-5′-deoxyadenosine]
- melting point: 222 to 223 °C

Structure (SMILES): CSC[C@H]1O[C@@H](n2cnc3c(N)nc(NN)nc32)[C@H](O)[C@@H]1O [Compound 58, 5′-Deoxy-2-hydrazino-5′-(methylthio)adenosine]
- melting point: 168 to 169 °C

Structure (SMILES): CSC[C@H]1O[C@@H](n2cnc3c(N)nc(C#N)nc32)[C@H](O)[C@@H]1O [Compound 71, 2-Cyano-5′-deoxy-5′-(methylthio)adenosine]
- melting point: 184 to 185 °C

Structure (SMILES): CNc1nc(C#N)nc2c1ncn2[C@@H]1O[C@H](C)[C@@H](O)[C@H]1O [Compound 72, 2-Cyano-5′-deoxy-N^6-methyladenosine]
- melting point: 193 to 194 °C

Structure (SMILES): CNc1nc(C#N)nc2c1ncn2[C@@H]1O[C@H](CSC)[C@@H](O)[C@H]1O [Compound 73, 2-Cyano-5′-deoxy-N^6-methyl-5′-(methylthio)adenosine]
- melting point: 193 to 194 °C

Structure (SMILES): O=c1[nH]cnc2c([C@@H]3O[C@H](CO)[C@@H](O)[C@H]3O)n[nH]c12 [Formycin B]
- Activity against T.b. rhodesiense (T.b. rhodesiense): active
- Activity against T.b gambiense (T.b gambiense): active
- Therapeutic activity in a hamster model (Leishmania donovani [5]): therapeutically active
- Inhibition of Leishmania donovani in vitro (Leishmania donovani [6]): inhibits

Structure (SMILES): O=C(Cn1ccnc1[N+](=O)[O-])NCc1ccccc1 [benznidazole, reference compound]
- IC50 (Trypanosoma cruzi; standard drug listed in the table, read-out: IC50 against T. cruzi (standard)): 427 nM

Structure (SMILES): CCCCCCCCCCCCCCCCOP(=O)([O-])OCC[N+](C)(C)C [miltefosine, reference compound]
- IC50 [3]: 122 nM

Source: patent US20180037601A1, “Nucleoside-Based Anti-Bacterial and Anti-Protozoan Drugs” (UTI Limited Partnership, priority 2015, published 2018)
